We go through 22 compounds from US9475805B2, “Tricyclic compound” (Kyowa Hakko Kirin Co., Ltd., priority 2008, dated 2016).

This experiment deals with T1, PPAR γ (Homo sapiens, UniProt P37231).
T1 construct: expressed in transfected cells; host or cells: HEK293EBNA
T1 sequence (P37231 174-475 isoform P37231-2): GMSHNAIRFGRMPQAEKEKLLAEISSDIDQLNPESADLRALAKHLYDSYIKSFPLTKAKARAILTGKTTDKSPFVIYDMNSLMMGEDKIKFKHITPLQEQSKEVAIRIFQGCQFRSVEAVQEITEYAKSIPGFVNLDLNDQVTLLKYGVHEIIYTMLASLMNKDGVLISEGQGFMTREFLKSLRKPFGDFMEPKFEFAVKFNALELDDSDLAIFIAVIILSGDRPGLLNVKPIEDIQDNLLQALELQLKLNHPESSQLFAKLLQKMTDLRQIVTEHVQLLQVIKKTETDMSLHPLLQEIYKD
In words: PPAR γ activation action based on transactivation assay of PPAR γ by transient gene transfer (GAL4-PPAR γ chimeric receptor, luciferase reporter, HEK293EBNA cells). The conditions noted are these: concentration showing 50% of the compound's own efficacy (maximum activity rate relative to pioglitazone 10 μmol/L = 100%), 24 hr. The format is cell-based. How it is done:
The agonist activity of compound (I) to PPAR γ was determined by a transactivation assay method using a chimeric nuclear receptor of a DNA binding region of a yeast transcription factor GAL4 and a PPAR γ ligand binding region. Specifically, the PPAR γ agonist activity of compound (I) was evaluated by the following method based on the method of Lehmann et al. (J Biol Chem., 1995, vol. 270, page 12953).
HEK293EBNA cells cultured in Dulbecco's Modified Eagle medium (Invitrogen) containing 10 v/v % fetal calf serum (Invitrogen) were used. 30 mL of the above-mentioned cells (density: 1×10^5 cells/mL) were inoculated in a […] (Iwaki Glass), and cultured overnight. Using SuperFect Transfection Reagent (QIAGEN), a plasmid expressing a GAL4-PPAR γ chimeric nuclear receptor fusing 174-475 amino acids, which are human PPAR γ ligand binding region, and 1-147 amino acids, which are GAL4 DNA binding region, and a reporter plasmid expressing a GAL4 responsive luciferase were transiently introduced into the cells at a proportion of 4:1. After 5 hr from transfection, the cells were detached from the culture dish, and the detached cells (density: 2×10^4 cells/mL) were inoculated by 100 μL in each well of a 96 well white plate (SUMITOMO BAKELITE), and cultured overnight. The medium was removed, compound (I) diluted in various concentrations with serum-free Dulbecco's Modified Eagle medium was added by 100 μL, and the mixture was reacted under a 5% carbon dioxide gas stream (5% CO2) at 37° C. for 24 hr. On the other hand, as a positive control, 10 μmol/L of pioglitazone (100 μL) was added, and the mixture was reacted under a 5% carbon dioxide gas stream (5% CO2) at 37° C. for 24 hr. As a substrate of luciferase, 100 μL of Steady-Glo (Promega) was added to each well and the mixture was thoroughly stirred. Immediately thereafter, the chemical luminescence due to luciferase was measured using TopCount NTX (Packard).
The agonist activity (activity rate (%)) of compound (I) to PPAR γ was calculated according to the following formula, as a relative activity when the agonist activity on addition of pioglitazone (10 μmol/L) was 100%.
(In general: A reporter such as luciferase makes a cellular process visible.)
On to `CCCc1nc2c(C)cccc2n1Cc1ccc2c(c1)COc1ccccc1/C2=C(\C)c1noc(=O)[nH]1` [Compound 35, (E)-8-(2-Propyl-4-methylbenzimidazol-1-yl)methyl-11-[1-(5-oxo-4,5-dihydro-1,2,4-oxadiazol-3-yl)ethylidene]-6,11-dihydrodibenzo[b,e]oxepine], for which the EC50 (as a rule, the concentration giving half of the maximal effect) turned out to be 2.4 nM. This lies in the single-digit nanomolar range.
Next, `CCC/C(=C1/c2ccc(Cn3c(CCC)nc4ccccc43)cc2COc2ccccc21)c1noc(=O)[nH]1` [Compound 115, (E)-11-[1-(5-Oxo-4,5-dihydro-1,2,4-oxadiazol-3-yl)butylidene]-8-(2-propylbenzimidazol-1-yl)methyl-6,11-dihydrodibenzo[b,e]oxepine]: 36 nM.
In turn, `CCCc1nc2ccccc2n1Cc1ccc2c(c1)COc1ccccc1/C2=C(\C)c1noc(=O)[nH]1` [Compound 27, (E)-8-(2-Propylbenzimidazol-1-yl)methyl-11-[1-(5-oxo-4,5-dihydro-1,2,4-oxadiazol-3-yl)ethylidene]-6,11-dihydrodibenzo[b,e]oxepine] showed an EC50 of 2.6 nM.
Take `CCc1nc2c(Cl)cccc2n1C(C)c1ccc2c(c1)CCc1ccccc1/C2=C\c1noc(=O)[nH]1` (stereo not shown) [Compound 87, (E)-2-[1-(4-Chloro-2-ethylbenzimidazol-1-yl)ethyl]-5-(5-oxo-4,5-dihydro-1,2,4-oxadiazol-3-yl)methylene-10,11-dihydro-5H-dibenzo[a,d]cycloheptene]: the EC50 was 60 nM.
The result for `CCCc1nc2ccccc2n1Cc1ccc2c(c1)COc1ccc(F)cc1/C2=C(\C)c1noc(=O)[nH]1` [Compound 116, (E)-2-Fluoro-8-(2-propylbenzimidazol-1-yl)methyl-11-[1-(5-oxo-4,5-dihydro-1,2,4-oxadiazol-3-yl)ethylidene]-6,11-dihydrodibenzo[b,e]oxepine] reads 12 nM; that for `COCc1nc2ccccc2n1Cc1ccc2c(c1)COc1ccccc1/C2=C(\C)c1noc(=O)[nH]1` [Compound 30, (E)-8-(2-Methoxymethylbenzimidazol-1-yl)methyl-11-[1-(5-oxo-4,5-dihydro-1,2,4-oxadiazol-3-yl)ethylidene]-6,11-dihydrodibenzo[b,e]oxepine], 9.8 nM.
The result for `CCc1nc(-c2ccccc2)cn1Cc1ccc2c(c1)COc1ccccc1/C2=C(\C)c1noc(=O)[nH]1` [Compound 21, (E)-8-(2-Ethyl-4-phenylimidazol-1-yl)methyl-11-[1-(5-oxo-4,5-dihydro-1,2,4-oxadiazol-3-yl)ethylidene]-6,11-dihydrodibenzo[b,e]oxepine] reads 40 nM; that for `CCCc1nc2c(C)cccc2n1Cc1ccc2c(c1)CCc1ccccc1/C2=C(\C)c1nnn[nH]1` [Compound 17, (Z)-2-(4-Methyl-2-propylbenzimidazol-1-yl)methyl-5-[1-(1H-tetrazol-5-yl)ethylidene]-10,11-dihydro-5H-dibenzo[a,d]cycloheptene], 30 nM; that for `C/C(=C1/c2ccc(Cn3c(Cc4ccccc4)nc4ccccc43)cc2COc2ccccc21)c1noc(=O)[nH]1` [Compound 33, (E)-8-(2-Benzylbenzimidazol-1-yl)methyl-11-[1-(5-oxo-4,5-dihydro-1,2,4-oxadiazol-3-yl)ethylidene]-6,11-dihydrodibenzo[b,e]oxepine], 26 nM.
The result for `CCc1nc2ccccc2n1Cc1ccc2c(c1)COc1ccccc1/C2=C(\C)c1noc(=O)[nH]1` [Compound 26, (E)-8-(2-Ethylbenzimidazol-1-yl)methyl-11-[1-(5-oxo-4,5-dihydro-1,2,4-oxadiazol-3-yl)ethylidene]-6,11-dihydrodibenzo[b,e]oxepine] reads 17 nM; that for `CCc1nc2c(C)cc(C)nc2n1Cc1ccc2c(c1)CCc1ccccc1/C2=C\c1noc(=S)[nH]1` [Compound 8, (E)-2-(2-Ethyl-5,7-dimethyl-3H-imidazo[4,5-b]pyridin-3-yl)methyl-5-(5-thioxo-4,5-dihydro-1,2,4-oxadiazol-3-yl)methylene-10,11-dihydro-5H-dibenzo[a,d]cycloheptene], 175 nM.
`C/C(=C1\c2ccccc2OCc2nc(Cn3c(C4CC4)nc4c(Cl)ccnc43)ccc21)c1noc(=O)[nH]1` [Compound 119, (E)-2-(7-Chloro-2-cyclopropyl-3H-imidazo[4,5-b]pyridin-3-yl)methyl-5-[1-(5-oxo-4,5-dihydro-1,2,4-oxadiazol-3-yl)ethylidene]-5,11-dihydrobenzooxepino[3,4-b]pyridine] displayed an EC50 of 314 nM.
Next, `CCc1nc2c(C)cc(C)nc2n1Cc1ccc2c(c1)OCc1ccccc1/C2=C(\C)c1noc(=O)[nH]1` [Compound 76, (Z)-3-(2-Ethyl-5,7-dimethyl-3H-imidazo[4,5-b]pyridin-3-yl)methyl-11-[1-(5-oxo-4,5-dihydro-1,2,4-oxadiazol-3-yl)ethylidene]-6,11-dihydrodibenzo[b,e]oxepine]: 328 nM.
In turn, `CCCc1nc2c(C)cc(-c3nnco3)cc2n1Cc1ccc2c(c1)CCc1ccccc1/C2=C\c1nnn[nH]1` [Compound 70, (E)-2-[4-Methyl-6-(1,3,4-oxadiazol-2-yl)-2-propylbenzimidazol-1-yl]methyl-5-(1H-tetrazol-5-yl)methylene-10,11-dihydro-5H-dibenzo[a,d]cycloheptene] registered an EC50 of 156 nM.
Next, `CCCc1nc2ccccc2n1Cc1ccc2c(c1)CCc1ccccc1/C2=C\c1noc(=O)[nH]1` [Compound 5, (E)-2-(2-Propylbenzimidazol-1-yl)methyl-5-(5-oxo-4,5-dihydro-1,2,4-oxadiazol-3-yl)methylene-10,11-dihydro-5H-dibenzo[a,d]cycloheptene]: 399 nM; `Cc1cc(-c2ccccc2)cc2c1nc(C)n2Cc1ccc2c(c1)CCc1ccccc1/C2=C\C(=O)O` [Compound 55, (E)-[2-(2,4-Dimethyl-6-phenylbenzimidazol-1-yl)methyl-10,11-dihydro-5H-dibenzo[a,d]cyclohepten-5-ylidene]acetic acid]: 39 nM.
The result for `CCCc1nc2ccccc2n1Cc1ccc2c(c1)CCc1ccccc1/C2=C\c1n[nH]c(=O)o1` [Compound 7, (E)-2-(2-Propylbenzimidazol-1-yl)methyl-5-(5-oxo-4,5-dihydro-1,3,4-oxadiazol-2-yl)methylene-10,11-dihydro-5H-dibenzo[a,d]cycloheptene] reads 791 nM; that for `CCCc1nc2c(C)cc(-c3ncco3)cc2n1Cc1ccc2c(c1)CCc1ccccc1/C2=C\C(=O)N(C)CC(=O)O` [Compound 95, (E)-2-[N-Methyl 2-({2-[4-methyl-6-(1,3-oxazol-2-yl)-2-propylbenzimidazol-1-yl]methyl-10,11-dihydro-5H-dibenzo[a,d]cyclohepten-5-ylidene}acetamido)]acetic acid], 31 nM; that for `CCc1nc2c(C)cc(-c3ccccc3)cc2n1Cc1ccc2c(c1)CCc1ccccc1/C2=C\C#N` [Compound 50, (E)-[2-(2-Ethyl-4-methyl-6-phenylbenzimidazol-1-yl)methyl-10,11-dihydro-5H-dibenzo[a,d]cyclohepten-5-ylidene]acetonitrile], 352 nM.
Next, `C/C(=C1\c2ccccc2CCc2cc(Cn3c(C4CC4)nc4c(Cl)cccc43)ccc21)c1noc(=O)[nH]1` [Compound 19, (Z)-2-(4-Chloro-2-cyclopropylbenzimidazol-1-yl)methyl-5-[1-(5-oxo-4,5-dihydro-1,2,4-oxadiazol-3-yl)ethylidene]-10,11-dihydro-5H-dibenzo[a,d]cycloheptene]: 6.4 nM; `CCCc1nc2c(C(C)(C)O)cccc2n1Cc1ccc2c(c1)COc1ccccc1/C2=C(\C)c1noc(=O)[nH]1` [Compound 96, (E)-8-[(4-Hydroxypropan-2-yl)-2-propylbenzimidazol-1-yl]methyl-11-[1-(5-oxo-4,5-dihydro-1,2,4-oxadiazol-3-yl)ethylidene]-6,11-dihydrodibenzo[b,e]oxepine]: 13 nM.
`CCCc1nc2c(C(N)=O)cccc2n1Cc1ccc2c(c1)COc1ccccc1/C2=C(\C)c1noc(=O)[nH]1` [Compound 100, (E)-1-{11-[1-(5-Oxo-4,5-dihydro-1,2,4-oxadiazol-3-yl)ethylidene]-6,11-dihydrodibenzo[b,e]oxepin-8-yl}methyl-2-propylbenzimidazole-4-carboxamide] showed an EC50 of 20 nM.
